One data set has as its system HBMEC. The data set is described as follows: In vitro flow chamber: T cell-rolling on HBMEC, long-term conditions. It is filed as cell-based, human. How it is done:
(§1) Human brain microvascular endothelial cells (HBMEC) (#1000, Sciencell Research Laboratories) or human umbilical vein endothelial cells (HUVEC) (#C-12200, Promocell) were used as endothelial cell-model. Cryopreserved HBMEC at passage 1 (>5×10^5 cells/ml) were first cultivated in fibronectin-coated Nunclon-treated 75 cm^2 cell culture flasks (#156499, Nunc) at 37° C. and 5% CO2 in a Heraeus Cytoperm 2 (Thermo Scientific) according to the manufacturer's instructions. Sub-cultivation of HBMEC was done with the Detach Kit (#C-41200, Promocell) consisting of HEPES-buffered balanced salt solution (#C-40000, Promocell), trypsin-EDTA solution (0.04%/0.03%) (#C-41000, Promocell) and trypsin neutralization solution (TNS, #C-41100, Promocell). Briefly, the medium was aspirated from the HBMEC-layer and cells were washed with 2 ml of HEPES-buffered balanced salt solution. Addition of 2 ml of trypsin-EDTA solution for 1-5 min at room temperature led to detachment of HBMEC from the flask bottom. Inactivation of trypsin-EDTA solution was performed by addition of 2 ml of trypsin neutralization solution to the cell suspension. Cells were centrifuged at 300 g for 4 min in a Heraeus Megafuge 40 (Thermo Scientific) and seeded at a cell density of 5×10^5 cells per gelatin-coated 75 cm^2 cell culture flask (#L7230, Biochrom). HBMEC for rolling and adhesion experiments were cultivated in RPMI 1640 medium (#FG1215, Biochrom) supplemented with Nu-Serum IV (10%) (#355505, BD Biosciences), dialyzed FBS (10%) (#SZ0115, Biochrom), MEM-vitamins (1%) (#K0373, Biochrom), L-glutamine (1%) (#K0283, Biochrom), sodium-pyruvate (1%) (#L0473, Biochrom), heparin (10 U/ml) (#L6510, Biochrom), and […] cell growth factor ECGS (30 μg/ml) (#02-102, Millipore). Cultivation of HUVEC was done in endothelial cell growth medium (#C-22010, Promocell) supplemented with dialyzed FBS (10%) (#SZ0115, Biochrom) using gelatin-coated 75 cm^2 cell culture flasks. Sub-cultivation of HUVEC was performed with the Detach Kit ([…], Promocell) and cells were seeded at a cell density of 4.0-7.5×10^5 cells per 75 cm^2 cell culture flask.
(§2) Isolation of human PBMC from blood was performed by modified density gradient centrifugation as described elsewhere. Briefly, 15-20 ml of freshly drawn heparinized blood was transferred in Biocoll (#L6115, Biochrom)-containing Leukosep tubes (#227290, Greiner bio-one) and centrifuged in a Hettich Rotanta 460 RS Type 5606 (Hettich Laborapparate) at 1066 g for 15 min. After removal of the plasma fraction the PBMC containing phase was transferred in a new tube and washed twice with FACS-buffer (D-PBS #L1820, 5% FBS #SO115, Biochrom). Erythrocyte lysis was performed with lysis buffer (8.29 g/l NH4Cl, 1.00 g/l KHCO3, 0.037 g/l EDTA) for 5 min at room temperature. For subsequent purification of untouched T cells the human Pan T cell-isolation Kit II (#130-091-156, Miltenyi Biotec) was used according to the manufacturer's instructions.
The ibidi Pump System (#10902, ibidi) was used for cultivation of endothelial cells under flow conditions as well as for performing adhesion and rolling assays of human T cells on endothelial cells. The system consists of the ibidi Pump (#10905, ibidi) and the ibidi Fluidic Unit (#10903, ibidi) which work together to generate a unidirectional flow of medium in an attached slide with a defined channel height. The system is controlled by the ibidi Pump Control software (#10908, notebook+software, ibidi). For cultivation of HBMEC or HUVEC under flow conditions, HBMEC or HUVEC were seeded at a cell density of 2.5×10^6 cells/ml into μ-slide I^0.4 Luer Collagen IV (#80172, ibidi) or μ-slide I^0.4 Luer ibiTreat (#80176, ibidi), respectively according to the manufacturer's instructions and cultivated with a perfusion set “yellow/green” (#10964, ibidi) for 48 h under wall shear stress of 5 or 10 dyn/cm^2, respectively. […]

The next data set has as its system patients. Nature of the data set: Phase 1 clinical study: Blinatumomab with PPS co-medication. Format: in vivo, human. The procedure:
In a phase 1 clinical study three patients were treated with Blinatumomab at an initial dose of 5 μg/m^2/day for 1 week followed by a dose escalation to 60 μg/m^2/day for additional 3 to 7 weeks.

The conditions of data set [1]: pH 6; cited from earlier work.
The subject of another data set is HUVEC. The data set is described as follows: In vitro flow chamber: T cell-rolling and adhesion on HUVEC, long-term conditions. Format: cell-based, human. To be noted: non-stimulated HUVEC, 40 min. The procedure: as §1
as §2, with “For subsequent purification of untouched T cells the human Pan T cell-isolation Kit II (#130-091-156, Miltenyi Biotec) was used according to the manufacturer's instructions.” left out

The conditions of data set [2]: cited from earlier work.
A further data set relates to stroke patients. To be noted: iv, for several days; equivalent to 700 mg per os; cited from earlier work.

Bounds are passed on as bounds.

As a reminder, the bioavailability is the share of a dose that reaches the circulation, judged against a reference dose that is usually intravenous.

On to “natalizumab: antibody approved for the treatment of multiple sclerosis; binds to VLA-4 on T cells [reference compound]”, for which the “mean T cell-rolling velocity±SD” value with HBMEC (non-stimulated HBMEC, +AMG 103 10 ng/ml, T cells pre-incubated with 1 μg/ml natalizumab, 40 min) was 444±110 μm/sec; in the data set with HBMEC (non-stimulated HBMEC, −AMG 103, +natalizumab 1 μg/ml, 40 min), 445±81 μm/sec.
“β1→4-D-Xylan-2,3-bis(hydrogen sulfate) [PPS, reference compound]”: the “T cell-counts in peripheral blood vs baseline, 45 minutes after start of infusion or stepwise dose increase” value in the data set with patients (all three patients with PPS co-medication) was “no decline of T cell-counts”. Besides, the T cell-redistribution kinetics entry with patients (all three patients with intravenous PPS, absence of CD19-positive target cells) was “delayed T cell-redistribution kinetics”. Moreover, the “earliest detection of decreased T cell-counts in peripheral blood after start of infusion or stepwise dose increase of Blinatumomab” value in the data set with patients (intervention with intravenous PPS) was not below 2 h. Besides, the “discontinuation of Blinatumomab treatment due to neurological adverse effects” value with patients (three patients with intravenous PPS at start of infusion and dose step, high risk (low B:T cell-ratios)) is listed as “none of these three patients had to discontinue treatment”. Also, the “mean T cell-rolling velocity±SD” value with HBMEC (histamine-stimulated HBMEC, +AMG 103 10 ng/ml, +PPS 200 μg/ml, 45 min) was 483±157 μm/sec; in the data set on HBMEC (histamine-stimulated HBMEC, −AMG 103, +PPS 200 μg/ml, 45 min) it was 442±156 μm/sec; with HBMEC (non-stimulated HBMEC, +AMG 103 10 ng/ml, +PPS 200 μg/ml, 40 min), 465±116 μm/sec; in the data set on HBMEC (non-stimulated HBMEC, −AMG 103, +PPS 200 μg/ml, 40 min), 514±159 μm/sec. The solubility in water in data set [1] was 50%.
As to `CN(C)c1ccc(O)c2c1C[C@H]1C[C@H]3[C@H](N(C)C)C(O)=C(C(N)=O)C(=O)[C@@]3(O)C(O)=C1C2=O` [minocycline, Minocycline], the “mean T cell-rolling velocity±SD” value is recorded as 217±92 μm/sec with HUVEC (+AMG 103 10 ng/ml, T cells pre-incubated with 50 μg/ml minocycline) and 233±29 μm/sec in the data set with HUVEC (−AMG 103, +minocycline 50 μg/ml). In data set [2] (after oral administration), the bioavailability is approximately 100%. Besides, the in vivo half-life result in data set [2] (in vivo) was “approximately 24 hours”. For the same compound, in the data set with stroke patients, the “daily doses found to be safe and well-tolerated” value is on record as “up to 10 mg/kg”.

These data come from patent US9688760B2, “Anti-leukocyte adhesion for the mitigation of potential adverse events caused by CD3-specific binding domains” (AMGEN RESEARCH (MUNICH) GMBH, priority 2013, dated 2017).
